Measurements: patent US7166738B2, “Non-nucleoside reverse transcriptase inhibitors” (Roche Palo Alto LLC, priority 2004, dated 2007)

| SMILES | melting point [°C] |
| --- | --- |
| Cc1cc(S(N)(=O)=O)ccc1NC(=O)Cc1ccc(Cl)c(Oc2cc(C#N)cc(C(C)(F)F)c2)c1F [Compound I-96, 2-{4-Chloro-3-[3-cyano-5-(1,1-difluoro-ethyl)-phenoxy]-2-fluoro-phenyl}-N-(2-methyl-4-sulfamoyl-phenyl)-acetamide] | 198.5 to 201 |
| Cc1cc(S(=O)(=O)NC(=O)[C@@H](N)C(C)C)ccc1NC(=O)Cc1ccc(Cl)c(Oc2cc(Cl)cc(C#N)c2)c1F.Cl | 169 to 180.3 |
| CCc1ccc(CC(=O)Nc2ccc(S(N)(=O)=O)cc2)cc1Oc1cc(Br)cc(F)c1Cl [Compound I-39, 2-[3-(5-Bromo-2-chloro-3-fluoro-phenoxy)-4-ethyl-phenyl]-N-(4-sulfamoyl-phenyl)-acetamide] | 209.9 to 211.1 |
| COc1cc(CC(=O)Nc2ccc(S(N)(=O)=O)cc2C)cc(Oc2cc(Cl)cc(C#N)c2)c1 [Compound I-133, 2-[3-(3-Chloro-5-cyano-phenoxy)-5-methoxy-phenyl]-N-(2-methyl-4-sulfamoyl-phenyl)-acetamide] | 169.9 to 171.1 |
| CNS(=O)(=O)c1ccc(NC(=O)Cc2ccc(Cl)c(Oc3cc(Cl)cc(C#N)c3)c2F)c(Cl)c1 [Compound I-168, 2-[4-Chloro-3-(3-chloro-5-cyano-phenoxy)-2-fluoro-phenyl]-N-(2-chloro-4-methylsulfamoyl-phenyl)-acetamide] | 199.1 to 200 |
| COc1ccc(CC(=O)Nc2ccc(S(N)(=O)=O)cc2)cc1Oc1cc(C#N)cc(C(F)F)c1 [Compound I-92, 2-[3-(3-Cyano-5-difluoromethyl-phenoxy)-4-methoxy-phenyl]-N-(4-sulfamoyl-phenyl)-acetamide] | 213.9 to 214.2 |
| CCc1ccc(CC(=O)Nc2ccc(S(N)(=O)=O)cc2C)cc1Oc1cc(C#N)cc(C#N)c1Cl [Compound I-53, 2-[3-(2-Chloro-3,5-dicyano-phenoxy)-4-ethyl-phenyl]-N-(2-methyl-4-sulfamoyl-phenyl)-acetamide] | 199.4 to 205.3 |
| N#Cc1cc(Cl)cc(Oc2cc(CC(=O)Nc3ccc(S(N)(=O)=O)cc3)ccc2Cl)c1 [Compound I-1, 2-[4-Chloro-3-(3-chloro-5-cyano-phenoxy)-phenyl]-N-(4-sulfamoyl-phenyl)-acetamide] | 210.5 to 214 |
| N#Cc1cc(Oc2cc(CC(=O)Nc3ccc(S(N)(=O)=O)cc3)ccc2Cl)cc(C(F)(F)F)c1 [Compound I-88, 2-[4-Chloro-3-(3-cyano-5-trifluoromethyl-phenoxy)-phenyl]-N-(4-sulfamoyl-phenyl)-acetamide] | 219 to 221.4 |
| Cc1cc(S(N)(=O)=O)ccc1NC(=O)Cc1ccc(Cl)c(Oc2cc(Br)cc(C#N)c2)c1F [Compound I-185, 2-[3-(3-Bromo-5-cyano-phenoxy)-4-chloro-2-fluoro-phenyl]-N-(2-methyl-4-sulfamoyl-phenyl)-acetamide] | 246 to 250.6 |
| Cc1cc(C(=O)CN2CCOCC2)ccc1NC(=O)Cc1ccc(C)c(Oc2cc(Cl)cc(C#N)c2)c1.O=C(O)C(F)(F)F | 110.3 to 110.5 |
| COc1ccc(CC(=O)Nc2ccc(S(N)(=O)=O)cc2C)c(F)c1Oc1cc(Cl)cc(C#N)c1 [Compound I-191, 2-[3-(3-Chloro-5-cyano-phenoxy)-2-fluoro-4-methoxy-phenyl]-N-(2-methyl-4-sulfamoyl-phenyl)-acetamide] | 239.9 to 240.8 |
| Cc1cc(CC(=O)Nc2ccc(S(N)(=O)=O)cc2)cc(Oc2cc(C#N)ccc2Cl)c1 [Compound I-146, 2-[3-(2-Chloro-5-cyano-phenoxy)-5-methyl-phenyl]-N-(4-sulfamoyl-phenyl)-acetamide] | 235.9 to 236.7 |
| Cc1cc(CC(=O)Nc2ccc(S(N)(=O)=O)cc2)cc(Oc2cc(Cl)cc(C#N)c2)c1C [Compound I-182, 2-[3-(3-Chloro-5-cyano-phenoxy)-4,5-dimethyl-phenyl]-N-(4-sulfamoyl-phenyl)-acetamide] | 229.7 to 231.3 |
| CCc1ccc(CC(=O)Nc2ccccc2Cl)cc1Oc1c(Cl)cccc1Cl [Compound I-23, N-(2-Chloro-phenyl)-2-[3-(2,6-dichloro-phenoxy)-4-ethyl-phenyl]-acetamide] | 107 to 110.5 |
| CCc1ccc(CC(=O)Nc2ccccc2Cl)cc1Oc1cc(Cl)cc(Br)c1 [Compound I-24, 2-[3-(3-Bromo-5-chloro-phenoxy)-4-ethyl-phenyl]-N-(2-chloro-phenyl)-acetamide] | 119.9 to 122.2 |
| Cc1cc(CC(=O)Nc2ccc(S(N)(=O)=O)cc2C)cc(Oc2cc(Cl)cc(C#N)c2)c1 [Compound I-142, 2[3-(3-Chloro-5-cyano-phenoxy)-5-methyl-phenyl]-N-(2-methyl-4-sulfamoyl-phenyl)-acetamide] | 184.8 to 186 |
| Cc1cc(S(=O)(=O)NC(=O)c2cccnc2)ccc1NC(=O)Cc1ccc(Cl)c(Oc2cc(Cl)cc(C#N)c2)c1F.Cl | 261.8 to 263.6 |

| SMILES | melting point [°C] |
| --- | --- |
| NS(=O)(=O)c1ccc(NC(=O)Cc2ccc(Cl)c(Oc3cc(Cl)ccc3Br)c2)cc1 [Compound I-4, 2-[3-(2-Bromo-5-chloro-phenoxy)-4-chloro-phenyl]-N-(4-sulfamoyl-phenyl)-acetamide] | 260.1 to 261.9 |
| CCc1ccc(CC(=O)Nc2ccc(S(N)(=O)=O)cc2)cc1Oc1cc(Cl)cc(C#N)c1 [Compound I-45, 2-[3-(3-Chloro-5-cyano-phenoxy)-4-ethyl-phenyl]-N-(4-sulfamoyl-phenyl)-acetamide] | 170.7 to 172.4 |
| Cc1cc(N2CCCS2(=O)=O)ccc1NC(=O)Cc1ccc(C)c(Oc2cc(Cl)cc(C#N)c2)c1 [Compound I-170, 2-[3-(3-Chloro-5-cyano-phenoxy)-4-methyl-phenyl]-N-[4-(1,1-dioxo-1λ^6-isothiazolidin-2-yl)-2-methyl-phenyl]-acetamide] | 182.5 to 184.6 |
| Cc1cc(S(N)(=O)=O)ccc1NC(=O)Cc1ccc(Cl)c(Oc2cc(C#N)cc(C(F)(F)F)c2)c1 [Compound I-89, 2-[4-Chloro-3-(3-cyano-5-trifluoromethyl-phenoxy)-phenyl]-N-(2-methyl-4-sulfamoyl-phenyl)-acetamide] | 211.6 to 214.6 |
| N#Cc1cc(Cl)cc(Oc2c(Cl)ccc(CC(=O)Nc3ccc(S(=O)(=O)NC(=O)CCC(=O)O)cc3Cl)c2F)c1 [Compound I-188, 4-(3-Chloro-4-{2-[4-chloro-3-(3-chloro-5-cyano-phenoxy)-2-fluoro-phenyl]-acetylamino}-benzenesulfonylamino)-4-oxo-butyric acid] | 143.4 to 144 |
| Cc1ccc(CC(=O)Nc2ccccc2Cl)cc1Oc1cc(F)cc(C#N)c1 [Compound I-12, N-(2-Chloro-phenyl)-2-[3-(3-cyano-5-fluoro-phenoxy)-4-methyl-phenyl]-acetamide] | 131.1 to 132.2 |
| CCc1ccc(CC(=O)Nc2ccc(S(N)(=O)=O)cc2)cc1Oc1cc(Cl)ccc1Cl [Compound I-19, 2-[3-(2,5-Dichloro-phenoxy)-4-ethyl-phenyl]-N-(4-sulfamoyl-phenyl)-acetamide] | 190 to 193.4 |
| CSCCCNS(=O)(=O)c1ccc(NC(=O)Cc2ccc(C)c(Oc3cc(Cl)cc(C#N)c3)c2)c(C)c1 [Compound I-131, 2-[3-(3-Chloro-5-cyano-phenoxy)-4-methyl-phenyl]-N-[2-methyl-4-(3-methylsulfanyl-propylsulfamoyl)-phenyl]-acetamide] | 159.9 to 162.8 |
| Cc1cc(C#N)cc(C)c1Oc1cc(CC(=O)Nc2ccc(S(N)(=O)=O)cc2)ccc1Cl [Compound I-55, 2-[4-Chloro-3-(4-cyano-2,6-dimethyl-phenoxy)-phenyl]-N-(4-sulfamoyl-phenyl)-acetamide] | 227.3 to 231.4 |
| Cc1cc(S(N)(=O)=O)ccc1NC(=O)Cc1ccc(Cl)c(Oc2cc(C#N)cc(C#CCN(C)C)c2)c1F [Compound I-187, 2-{4-Chloro-3-[3-cyano-5-(3-dimethylamino-prop-1-ynyl)-phenoxy]-2-fluoro-phenyl}-N-(2-methyl-4-sulfamoyl-phenyl)-acetamide] | 156.2 to 158.2 |
| COc1cc(CC(=O)Nc2ccc(S(N)(=O)=O)cc2Cl)cc(Oc2cc(Cl)cc(C#N)c2)c1 [Compound I-136, 2-[3-(3-Chloro-5-cyano-phenoxy)-5-methoxy-phenyl]-N-(2-chloro-4-sulfamoyl-phenyl)-acetamide] | 159 to 161.1 |
| N#Cc1cc(Oc2c(F)c(CC(=O)Nc3ccc(S(N)(=O)=O)cc3)cc(Br)c2Br)cc(C(F)F)c1 [Compound I-114, 2-[4,5-Dibromo-3-(3-cyano-5-difluoromethyl-phenoxy)-2-fluoro-phenyl]-N-(4-sulfamoyl-phenyl)-acetamide] | 144 to 147 |
| Cc1cc(S(N)(=O)=O)ccc1NC(=O)Cc1cc(C)c(C)c(Oc2cc(Cl)cc(C#N)c2)c1 [Compound I-183, 2-[3-(3-Chloro-5-cyano-phenoxy)-4,5-dimethyl-phenyl]-N-(2-methyl-4-sulfamoyl-phenyl)-acetamide] | 230.8 to 233.4 |
| COc1ccc(CC(=O)Nc2ccc(S(N)(=O)=O)cc2)cc1Oc1cc(Cl)cc(C#N)c1 [Compound I-57, 2-[3-(3-Chloro-5-cyano-phenoxy)-4-methoxy-phenyl]-N-(4-sulfamoyl-phenyl)-acetamide] | 218.3 to 221.4 |
| Cc1cc(S(N)(=O)=O)ccc1NC(=O)Cc1ccc(C)c(Oc2cc(Cl)cc(C#N)c2)c1 [Compound I-122, 2-[3-(3-Chloro-5-cyano-phenoxy)-4-methyl-phenyl]-N-(2-methyl-4-sulfamoyl-phenyl)-acetamide] | 192.8 to 194.1 |
| CCc1ccc(CC(=O)Nc2ccccc2Cl)cc1Oc1cc(Br)cc(F)c1Cl [Compound I-41, 2-[3-(5-Bromo-2-chloro-3-fluoro-phenoxy)-4-ethyl-phenyl]-N-(2-chloro-phenyl)-acetamide] | 146.6 to 147.2 |
| CCc1ccc(CC(=O)Nc2ccc(S(N)(=O)=O)cc2Cl)cc1Oc1cc(Cl)cc(C#N)c1 [Compound I-47, 2-[3-(3-Chloro-5-cyano-phenoxy)-4-ethyl-phenyl]-N-(2-chloro-4-sulfamoyl-phenyl)-acetamide] | 181.1 to 183.9 |
| Cc1cc(C#N)cc(Oc2c(Cl)ccc(CC(=O)Nc3ccc(S(N)(=O)=O)cc3C)c2F)n1 [Compound I-124, 2-[4-Chloro-3-(4-cyano-6-methyl-pyridin-2-yloxy)-2-fluoro-phenyl]-N-(2-methyl-4-sulfamoyl-phenyl)-acetamide] | 230.1 to 230.7 |
